{"source": "patent US7018993B2", "about": "“Antiandrogenic agent” (Chugai Seiyaku Kabushiki Kaisha, priority 2000, dated 2006)", "key": {"human androgen receptor [1]": {"target": "T1, human androgen receptor (Homo sapiens, UniProt P10275)", "T1 construct": "expressed in transfected cells; host or cells: HeLa cells", "T1 sequence (P10275 1-920)": "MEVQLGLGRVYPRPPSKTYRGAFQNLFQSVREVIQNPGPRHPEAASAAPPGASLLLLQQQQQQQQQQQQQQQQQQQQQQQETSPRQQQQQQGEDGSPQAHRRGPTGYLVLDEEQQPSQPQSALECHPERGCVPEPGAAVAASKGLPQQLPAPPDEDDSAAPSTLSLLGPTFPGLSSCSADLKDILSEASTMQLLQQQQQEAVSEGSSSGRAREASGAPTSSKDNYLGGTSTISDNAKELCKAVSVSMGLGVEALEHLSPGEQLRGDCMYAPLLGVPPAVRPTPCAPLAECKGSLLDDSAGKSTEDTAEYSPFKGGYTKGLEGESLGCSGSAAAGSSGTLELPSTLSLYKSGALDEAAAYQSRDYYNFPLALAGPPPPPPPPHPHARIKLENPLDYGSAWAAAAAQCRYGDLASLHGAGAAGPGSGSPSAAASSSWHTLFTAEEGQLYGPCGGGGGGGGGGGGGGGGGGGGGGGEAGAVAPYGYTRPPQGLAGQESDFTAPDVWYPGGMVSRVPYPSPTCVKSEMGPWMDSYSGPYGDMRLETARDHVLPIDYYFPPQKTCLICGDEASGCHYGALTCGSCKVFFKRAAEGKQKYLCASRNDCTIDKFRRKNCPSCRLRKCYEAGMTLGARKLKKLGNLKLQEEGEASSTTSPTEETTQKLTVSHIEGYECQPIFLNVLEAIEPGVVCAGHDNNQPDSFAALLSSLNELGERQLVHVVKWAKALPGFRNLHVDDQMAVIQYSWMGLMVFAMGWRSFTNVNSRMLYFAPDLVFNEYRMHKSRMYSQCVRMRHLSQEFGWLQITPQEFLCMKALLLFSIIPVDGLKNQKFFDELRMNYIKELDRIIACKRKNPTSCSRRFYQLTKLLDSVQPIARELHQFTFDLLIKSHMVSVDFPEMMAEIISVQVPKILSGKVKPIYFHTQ", "assay": "Androgen receptor reporter gene assay for antagonistic effects (inhibition of DHT-induced transcriptional activity, HeLa cells)", "assay_type": "cell-based", "experimental": "Twenty-four hours before transfection, 1.0×10^5 HeLa cells are cultured in a 12-well microplate containing phenol red-free DMEM/5% DCC-FBS. […] To effect this assay, reference may be made to J. Biol. Chem., vol. 270, p.\n(§1) Twenty-four hours before transfection, 1.0×10^5 HeLa cells are cultured in a 12-well microplate containing phenol red-free DMEM/5% DCC-FBS."}, "human androgen receptor [2]": {"target": "T1, human androgen receptor", "assay": "Androgen receptor reporter gene assay for agonistic effects (MMTV-Luc, HeLa cells)", "assay_type": "cell-based", "details": "10 μmol/L", "experimental": "Twenty-four hours before transfection, 1.0×10^5 HeLa cells (purchased from Dainippon Pharmaceutical Co., Ltd.) are cultured in a 12-well microplate containing phenol red-free Dulbecco's Modified Eagle Medium (phenol red-free DMEM) supplemented with charcoal-treated FBS (DCC-FBS; 5%). […] To effect this assay, reference may be made to J. Biol. Chem., vol. 270, p.\nas §1"}, "androgen receptor": {"target": "androgen receptor (Homo sapiens, UniProt P10275)", "details": "10 μmol/L; cited from earlier work"}, "[3]": {"details": "prostate cancer patients undergoing treatment with flutamide; cited from earlier work"}, "prostate weight": {"test_system": "prostate weight", "details": "castrated rats, continuous administration for two weeks; cited from earlier work"}}, "data": [{"smiles": "CN(C)C(=O)CCCOc1cc(O)cc(CCC[C@@H]2C[C@H]3CC(=O)CC[C@]3(C)[C@H]3CC[C@]4(C)[C@@H](O)CC[C@H]4[C@H]23)c1", "note": "[Compound from Example 3, 17β-Hydroxy-7α-(3-(3-hydroxy-5-(3-(N,N-dimethylaminocarbonyl)propoxy)phenyl)propyl)-5α-androstan-3-one]", "values": [{"measurement": "IC50", "setting": "human androgen receptor [1]", "result": 392, "unit": "nM"}]}, {"smiles": "CC(C)(O)C(=O)Nc1ccc([N+](=O)[O-])c(C(F)(F)F)c1", "note": "[Hydroxyflutamide, hydroxyflutamide]", "values": [{"measurement": "agonistic effects", "setting": "human androgen receptor [2]", "result": "observed to have agonistic effects"}, {"measurement": "Luciferase activity (Relative activity)", "setting": "human androgen receptor [1]; 1.0 μmol/L compound with 0.1 nmol/L DHT, 48 h, activity given by 0.1 nmol/L DHT set to 100", "result": "29.0 (<50.0)"}, {"measurement": "transcriptional activity of androgen receptor", "setting": "androgen receptor", "result": "enhance the transcriptional activity"}, {"measurement": "blood hydroxyflutamide levels", "setting": "[3]", "result": "several"}]}, {"smiles": "CC(=O)O[C@]1(C(C)=O)CC[C@H]2[C@@H]3C=C(Cl)C4=CC(=O)CC[C@]4(C)[C@H]3CC[C@@]21C", "note": "[chlormadinone acetate]", "values": [{"measurement": "prostate weight", "setting": "prostate weight", "result": "increase in their prostate weight"}]}, {"smiles": "CC(=O)O[C@]1(C(C)=O)CC[C@H]2[C@@H]3C=C(Cl)C4=CC(=O)[C@@H]5C[C@@H]5[C@]4(C)[C@H]3CC[C@@]21C", "note": "[cyproterone acetate]", "values": [{"measurement": "prostate weight", "setting": "prostate weight", "result": "increase in their prostate weight"}]}]}
